In US4924002A, “Novel process for the preparation of pyrazoles from isoxazoles” (Warner-Lambert Company, priority 1989, dated 1990) one finds UV max, α and IC50 data, which are given here for five molecules.

Data set [1] can be described thus: Ultraviolet absorbing properties compared with p-aminobenzoic acid. The data set is classed as physicochemical. On the set-up: UV max: unit not given here. The following applies: for α: ultraviolet absorption. Here is the method:
The ultraviolet absorbing properties of the compounds of the present invention is generally shown by a comparison with p-aminobenzoic acid which is the active ingredient in most commercial sunscreens. Such properties are within the ultraviolet absorbing ranges of […] range critical to effectiveness. A representative compound of the invention is compared to p-aminobenzoic acid in the following Table.

Another data set deals with T1, cyclooxygenase (Rattus norvegicus, UniProt Q63921).
T1 construct: host or cells: RBL-1 (rat basophilic leukemia)
T1 sequence (Q63921 27-602): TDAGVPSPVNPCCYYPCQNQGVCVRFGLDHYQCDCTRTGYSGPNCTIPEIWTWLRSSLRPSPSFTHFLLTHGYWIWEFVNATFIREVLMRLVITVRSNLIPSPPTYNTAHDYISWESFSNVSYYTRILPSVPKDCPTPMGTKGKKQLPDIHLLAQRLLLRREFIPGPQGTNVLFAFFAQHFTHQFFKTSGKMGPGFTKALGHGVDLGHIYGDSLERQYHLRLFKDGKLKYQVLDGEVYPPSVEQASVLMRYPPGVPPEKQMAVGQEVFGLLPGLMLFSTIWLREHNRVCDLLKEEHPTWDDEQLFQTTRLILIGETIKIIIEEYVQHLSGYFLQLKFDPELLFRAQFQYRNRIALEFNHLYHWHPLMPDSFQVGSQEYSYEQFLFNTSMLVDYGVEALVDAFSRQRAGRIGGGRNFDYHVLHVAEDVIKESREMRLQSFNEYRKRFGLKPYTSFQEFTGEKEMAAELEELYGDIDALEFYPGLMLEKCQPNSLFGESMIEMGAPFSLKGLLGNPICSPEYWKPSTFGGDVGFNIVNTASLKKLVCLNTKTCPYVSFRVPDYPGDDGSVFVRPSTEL
Nature of the data set: ARBC RBL-1 whole cell cyclooxygenase assay (PGF2α by RIA). The data set is classed as cell-based. The following applies: RBL-1 intact cells, 5 μM A23187, PGF2α. How it is done: (§1) ARBL/ARBC Whole Cell 5-Lipoxygenase and Cyclooxygenase Assays
(§2) The rat basophilic leukemia cell line (RBL-1) was obtained from the American Type Culture Collection (Rockville, Md.).
(§3) Radioimmuno assay (RIA) kits of LTB4 and PGF2α were obtained from Amersham (Arlington Heights, Ill.) and Seragen (Boston, Mass.) respectively.
(§4) All tissue culture media were obtained from GIBCO (Grand Island, N.Y.).
(§5) RBL-1 cells were grown in culture (suspension) in Eagle's minimum essential medium supplemented with 12% fetal bovine serum and 1:100 antibiotic-antimycotic mixture at 37° C. in an incubator supplied with air-5% carbon dioxide. Cells were harvested by centrifugation. They were washed with cold phosphate buffered saline pH 7.4 (PBS; NaCl, 7.1 g; Na2 HPO4, 1.15 g; KH2 PO4, 0.2 g; and KCl, 0.2 g/L). […] Calcium ionophore A23187 (5 μM) was added and cells were incubated for seven minutes at 37° C. The reaction was stopped by chilling the tubes in ice for ten minutes. Cells were separated by centrifugation and the supernatant was stored at -20°. Aliquots (100 μl) were analyzed for LTB4 and PGF2α using radioimmuno assay kits as provided by the supplier.

A further data set concerns the target T2, 5-lipoxygenase (Rattus norvegicus, UniProt P12527).
T2 construct: host or cells: RBL-1 (rat basophilic leukemia)
T2 sequence (P12527 1-673): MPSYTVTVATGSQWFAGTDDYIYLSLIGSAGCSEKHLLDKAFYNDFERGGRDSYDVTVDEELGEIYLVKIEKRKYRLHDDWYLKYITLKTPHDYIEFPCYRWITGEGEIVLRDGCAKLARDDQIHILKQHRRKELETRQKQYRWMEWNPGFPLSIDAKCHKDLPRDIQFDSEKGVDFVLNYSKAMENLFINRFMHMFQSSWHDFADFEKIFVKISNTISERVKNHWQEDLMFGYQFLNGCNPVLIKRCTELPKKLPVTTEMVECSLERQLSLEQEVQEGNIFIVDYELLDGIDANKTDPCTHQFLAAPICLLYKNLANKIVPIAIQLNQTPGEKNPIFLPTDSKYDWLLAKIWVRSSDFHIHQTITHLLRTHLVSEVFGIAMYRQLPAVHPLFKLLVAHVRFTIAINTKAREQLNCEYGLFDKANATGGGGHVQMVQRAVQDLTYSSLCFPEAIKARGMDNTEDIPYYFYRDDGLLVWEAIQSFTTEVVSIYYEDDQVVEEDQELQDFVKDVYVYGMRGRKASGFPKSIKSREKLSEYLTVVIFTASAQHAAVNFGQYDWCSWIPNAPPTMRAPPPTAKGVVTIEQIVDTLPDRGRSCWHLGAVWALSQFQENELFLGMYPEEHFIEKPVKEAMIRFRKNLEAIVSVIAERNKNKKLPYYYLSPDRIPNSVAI
Nature of the data set: ARBL RBL-1 whole cell 5-lipoxygenase assay (LTB4 by RIA). The format is cell-based. The following applies: RBL-1 intact cells, 5 μM A23187, LTB4. Here is the method: as §1, §2, §3, §4, §5

The term IC50 denotes the point on the concentration scale where inhibition reaches its midpoint.

Take `COc1cc(C=Cc2cc(C)[nH]n2)ccc1O` [Example 5, 3-[β-(4'-Hydroxy-3'-methoxyphenyl)ethenyl]-5-methyl-pyrazole]: in data set [1], the UV max came to 292 and the α is on record as 111.1. Turning to `COC(=O)C(=Cc1cc(C(C)(C)C)c(O)c(C(C)(C)C)c1)c1cc(C)no1` [Example 46, 5-[α-Carbomethoxy-β-(4'-hydroxy-3',5'-bis(1,1-dimethylethyl)phenyl)ethenyl]-3-methylisoxazole], the figures for the IC50 against cyclooxygenase and against 5-lipoxygenase were 2 µM and 10 µM, respectively.

As to `Cc1cc(C=Cc2cc(Br)c(O)c(Br)c2)no1` [Example 54B], the IC50 stood at 4.2 µM on cyclooxygenase and 3.3 µM against 5-lipoxygenase. Turning to `Cc1cc(C=Cc2cc(Br)c(O)c(Br)c2)n[nH]1` [Example 58, 3-[β-(4'-Hydroxy-3',5'-dibromophenyl)ethenyl]-5-methylpyrazole], the half-inhibitory concentration (IC50) against cyclooxygenase stood at 14.5 µM; against 5-lipoxygenase, 5.7 µM. Take `Nc1ccc(C(=O)O)cc1` [p-aminobenzoic acid, reference compound]: in data set [1], the α came to 132.2.
